According to patent publication US20090169526A1, “BMP-6 ESTROGEN RESPONSIVE ELEMENT AND METHODS OF USE THEREOF” (Wyeth, priority 2004, published 2009):
Entries after “also recorded” stand apart in the source; their conditions may differ. *1 amine or outer side, *2 acyl side, *3 side chain or, on linkers, in order; H or OH if unused. Where a SMILES comes first, the peptide text is derived from it. Bridges are numbered along the chain shown (N, C = ends). Roman numbers before positions name the chains, in order. [ ]: non-standard residue; d: D form. Actinocin(9to1) = Cc1c2oc3c(C)ccc(C(=O)[*:1])c3nc-2c(C(=O)[*:2])c(N)c1=O; NMeV = CN[C@H](C(=O)O)C(C)C; Sar = CNCC(=O)O

Experiments:
[1] = test system: hBMP-6 mRNA; assay: Real-time PCR of hBMP-6 mRNA with or without Actinomycin D; format: cell-based, human; details: for hBMP-6 mRNA expression: treated with E2, p<0.05
Source text: In order to determine whether estrogen regulates hBMP-6 at the level of transcription, we conducted Real-time PCR assays measuring hBMP-6 mRNA expression in cells pulse-chase treated with or without Actinomycin D, which inhibits […] (FIG. 8).

[2] = test system: hBMP-6 mRNA; assay: RT-PCR of hBMP-6 mRNA in engineered hMSCs (qualitative); format: cell-based, human; details: E2 10^−7 M, 24 hours
Protocol: H MSCs were infected with 100 pfu/cell adeno-LacZ, adeno-ER-α or adeno-ER-β.
RNA was isolated utilizing the TRIzol Reagent (Life Technologies, USA), according to manufacturer's protocol. RT-PCR was performed as described previously (Zhou et al., 2001). Forward and reverse primers for human ERα were: 5′-[…]-3′ (SEQ ID NO:6) and 5′-[…]-3′ (SEQ ID NO:7), respectively, and were designed according to the human ERα sequence (Green et al., 1986). Forward and reverse primers for human ERβ were: 5′-[…]-3′ (SEQ ID NO:8), and 5′-[…]-3′ (SEQ ID NO:9), respectively, designed according to human ERβ sequence (Moore et al., 1998). Primers for the hBMP-6 (458 bp) (Rickard et al., 1998), and internal control RPL19 (190 bp) (Orly et al., 1994) sequences were as described previously.
PCR conditions used for hERα and hERβ amplification were as follows: 30 cycles at 94° C. for 1 minute, 60° C. for 1 minute and 72° C. for 2 minute. Conditions used for hBMP-6 reverse transcription and PCR amplification were: incubation with RT, followed by 30 cycles of 94° C. for 1 minute, 55° C. for 1 minute and 72° C. for 2 minute in an MJ MiniCycler (MJ Research, USA). RT-PCR products of hBMP-6 were cloned into pGEM-T Easy vector (A1360, Promega), which following sequencing confirmed that the RT-PCR product was the hBMP-6 sequence.

[3] = biological target: T1, ERβ (Homo sapiens, UniProt Q92731); assay: ERE-tk-luciferase reporter in hMSCs infected with adeno-ERβ; format: cell-based; design: expressed in transfected cells; host or cells: human mesenchymal stem cells (hMSCs), adenoviral transduction with Ad5-CMV-ERβ (long form; gift of Women Health Institute, Wyeth); details: hMSCs infected with adeno-ERE-tk-luc, adeno-ERβ and adeno-LacZ; 10^−8 M E2, 24 hours; over vehicle control
T1 sequence (Q92731 whole entry): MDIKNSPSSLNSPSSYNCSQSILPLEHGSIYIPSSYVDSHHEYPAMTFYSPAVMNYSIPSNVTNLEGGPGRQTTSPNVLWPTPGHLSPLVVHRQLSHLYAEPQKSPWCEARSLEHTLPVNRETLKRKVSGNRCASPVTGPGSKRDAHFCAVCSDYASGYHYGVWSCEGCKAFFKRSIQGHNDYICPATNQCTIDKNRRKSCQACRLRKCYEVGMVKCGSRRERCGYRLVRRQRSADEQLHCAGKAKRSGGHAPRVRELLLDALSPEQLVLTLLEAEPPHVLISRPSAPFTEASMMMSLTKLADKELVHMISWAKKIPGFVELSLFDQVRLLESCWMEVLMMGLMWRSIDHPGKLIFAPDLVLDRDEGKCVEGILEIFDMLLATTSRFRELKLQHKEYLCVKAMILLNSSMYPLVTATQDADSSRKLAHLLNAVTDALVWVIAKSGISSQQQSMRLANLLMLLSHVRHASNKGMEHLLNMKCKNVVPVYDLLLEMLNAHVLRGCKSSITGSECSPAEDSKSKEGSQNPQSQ

[4] = test system: hBMP-6 promoter; assay: hBMP-6 promoter-Luc reporter in C3H10T1/2 cells; format: cell-based, mouse; details: 10^−8 M E2, 24 hours
[5] = biological target: T1, ERβ; assay: ERE-tk-Luc reporter in C3H10T1/2 cells co-transfected with ERβ; format: cell-based; design: expressed in transfected cells; details: mouse C3H10T1/2 cells co-transfected with ERβ; 10^−8 M E2, 24 hours
[6] = test system: estrogen receptors (Ers); details: hMSCs with ERE-tk-luciferase construct and adeno-lacZ construct; five donors
Protocol: (§1) hMSCs were infected in vitro at 80% confluence with Ad5-CMV-ERα, Ad5-CMV-ERβ and Ad5-CMV-LacZ at 100 pfu/cell, for 1 hour in serum-free DMEM after which DMEM supplemented with 10% FCS was added, as previously described (Bodine et al., 1997 and 1999). Efficiency of infection was estimated via β-gal activity determination, utilizing the Galacto-Light Chemiluminescent Reporter Assay System Kit (Tropix of PE Biosystems, USA). […] Five experiments, each in triplicate were conducted, standard error is represented.

[7] = test system: hBMP-6 mRNA; assay: Real Time RT-PCR of hBMP-6 mRNA in engineered hMSCs; format: cell-based, human; details: 10^−7 M E2, 24 hours
Protocol: as §1

| Structure (SMILES) | effect of Actinomycin D on up-regulation of hBMP-6 mRNA by E2 ([1]; hMSCs engineered with ERα or ERβ, pulse-chase treated) | hBMP-6 mRNA detection by RT-PCR ([2]; hMSCs transduced with adeno-ERα 100 pfu/cell) | hBMP-6 mRNA detection by RT-PCR ([2]; hMSCs transduced with adeno-ERβ 100 pfu/cell) | hBMP-6 mRNA detection by RT-PCR ([2]; hMSCs transduced with adeno-LacZ 100 pfu/cell) | increase in luciferase activity [3] | hBMP-6 promoter-Luc luminescence ([4]; mouse C3H10T1/2 cells co-transfected with ERα) | hBMP-6 promoter-Luc luminescence ([4]; mouse C3H10T1/2 cells co-transfected with ERβ) | ERE-tk-Luc luminescence [5] | luciferase activity following E2 treatment [6] | increase in hBMP-6 mRNA expression ([7]; hMSCs infected with Adeno-ERα 100 pfu/cell) | increase in hBMP-6 mRNA expression ([7]; hMSCs infected with Adeno-ERβ 100 pfu/cell) | stimulation of hBMP-6 mRNA expression ([7]; hMSCs infected with Adeno-LacZ) | hBMP-6 mRNA expression ([1]; cells transfected with ERα) | hBMP-6 mRNA expression ([1]; cells transfected with ERβ) |
| --- | --- | --- | --- | --- | --- | --- | --- | --- | --- | --- | --- | --- | --- | --- |
| Cc1c2oc3c(C)ccc(C(=O)N[C@@H]4C(=O)N[C@H](C(C)C)C(=O)N5CCC[C@H]5C(=O)N(C)CC(=O)N(C)[C@@H](C(C)C)C(=O)O[C@@H]4C)c3nc-2c(C(=O)N[C@@H]2C(=O)N[C@H](C(C)C)C(=O)N3CCC[C@H]3C(=O)N(C)CC(=O)N(C)[C@@H](C(C)C)C(=O)O[C@@H]2C)c(N)c1=O [Actinomycin D] (I: T[dV]P[Sar][NMeV] / II: T[dV]P[Sar][NMeV]; ester I:1-I:C, II:1-II:C; linker I:N-II:N via Actinocin(9to1)) | no statistical difference; also recorded: does not block | – | – | – | – | – | – | – | – | – | – | – | – | – |
| C[C@]12CC[C@@H]3c4ccc(O)cc4CC[C@H]3[C@@H]1CC[C@@H]2O [E2, 17β-estradiol] | – | qualitatively detectable levels | qualitatively detectable levels | did not | 6 fold | did not result in enhanced luminescence over background levels | did not result in enhanced luminescence over background levels | significant luminescence | failed to produce luciferase activity | 3.2 fold | 2.0 fold | not | significantly increased | significantly increased |
